Experimental data published in patent US20240270762A1, “PENICILLIN-BINDING PROTEIN INHIBITORS” (priority 2021, published 2024).
Values after ≈ are worked out from the molar mass of the structure shown.

How the values were obtained:
P. aeruginosa CDC-0095 = experiment: microbe, parasite or virus in culture; format: cell-based; conditions: Pseudomonas aeruginosa, CDC0095, read-out: Minimum inhibitory concentration, P. aeruginosa CDC-0095
A. baumannii CDC-0036 = experiment: microbe, parasite or virus in culture; format: cell-based; conditions: Acinetobacter baumannii, CDC0036, read-out: Minimum inhibitory concentration (MIC), A. baumannii CDC-0036
P. aeruginosa ATCC 35151 = experiment: microbe, parasite or virus in culture; format: cell-based; conditions: Pseudomonas aeruginosa, ATCC35151, read-out: Minimum inhibitory concentration, P. aeruginosa ATCC 35151
A. baumannii CDC-0033 = experiment: microbe, parasite or virus in culture; format: cell-based; conditions: Acinetobacter baumannii, CDC0033, read-out: Minimum inhibitory concentration (MIC), A. baumannii CDC-0033
A. baumannii ATCC 19606 = experiment: microbe, parasite or virus in culture; format: cell-based; conditions: Acinetobacter baumannii, ATCC19606, read-out: Minimum inhibitory concentration (MIC), A. baumannii ATCC 19606
[1] = test system: B. thailandensis ATCC 700388; experiment: microbe, parasite or virus in culture; format: cell-based; conditions: Burkholderia thailandensis, ATCC700388, read-out: Minimum inhibitory concentration (MIC), B. thailandensis ATCC 700388
A. baumannii ATCC 17978 = experiment: microbe, parasite or virus in culture; format: cell-based; conditions: Acinetobacter baumannii, ATCC17978, read-out: Minimum inhibitory concentration (MIC), A. baumannii ATCC 17978
[2] = molecular target: T1, PBP3 from Acinetobacter baumannii (ATCC 19606) (Acinetobacter baumannii, UniProt A0ABX6CK25); experiment: Bocillin-FL fluorescence polarization competition binding, A. baumannii PBP3; conditions: fluorescence polarization competition binding assay using Bocillin-FL; read-out: A. baumannii PBP3 Potency
T1 sequence (A0ABX6CK25 64-610): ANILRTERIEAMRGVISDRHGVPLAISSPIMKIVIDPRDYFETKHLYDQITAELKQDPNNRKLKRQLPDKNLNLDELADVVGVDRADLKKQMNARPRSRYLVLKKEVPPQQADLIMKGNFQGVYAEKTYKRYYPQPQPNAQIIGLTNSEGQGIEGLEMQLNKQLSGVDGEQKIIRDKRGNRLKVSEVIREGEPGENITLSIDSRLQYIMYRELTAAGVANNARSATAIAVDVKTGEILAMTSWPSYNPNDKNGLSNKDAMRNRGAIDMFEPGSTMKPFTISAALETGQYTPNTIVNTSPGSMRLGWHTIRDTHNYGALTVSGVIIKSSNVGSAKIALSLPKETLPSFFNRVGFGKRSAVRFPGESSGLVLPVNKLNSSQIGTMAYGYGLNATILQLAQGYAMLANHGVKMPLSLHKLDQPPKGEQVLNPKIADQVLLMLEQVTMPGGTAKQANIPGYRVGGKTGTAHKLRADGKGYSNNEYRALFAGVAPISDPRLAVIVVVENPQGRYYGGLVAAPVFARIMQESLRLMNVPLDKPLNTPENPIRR
Summary of the method: (§1)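 Purified PBPs pre-incubated with inhibitor (E. coli PBP3 1.5 μM, 30 min; P. aeruginosa PBP3 0.75 μM, A. baumannii PBP1a 1 μM and PBP3 0.2 μM, 15 min), then Bocillin-FL 0.1 μM (0.05 μM for PBP1a) added; FP read up to 60 min. EC50 = concentration halving bound Bocillin-FL.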

[3] = molecular target: T2, PBP3 from Pseudomonas aeruginosa (PAO1) (Pseudomonas aeruginosa, UniProt G3XD46); experiment: Bocillin-FL fluorescence polarization competition binding, P. aeruginosa PBP3; conditions: Binding affinity to P. aeruginosa PBP3; fluorescence polarization competition binding assay using Bocillin-FL; read-out: P. aeruginosa PBP3 Potency
T2 construct: made in house
T2 sequence (G3XD46 whole entry): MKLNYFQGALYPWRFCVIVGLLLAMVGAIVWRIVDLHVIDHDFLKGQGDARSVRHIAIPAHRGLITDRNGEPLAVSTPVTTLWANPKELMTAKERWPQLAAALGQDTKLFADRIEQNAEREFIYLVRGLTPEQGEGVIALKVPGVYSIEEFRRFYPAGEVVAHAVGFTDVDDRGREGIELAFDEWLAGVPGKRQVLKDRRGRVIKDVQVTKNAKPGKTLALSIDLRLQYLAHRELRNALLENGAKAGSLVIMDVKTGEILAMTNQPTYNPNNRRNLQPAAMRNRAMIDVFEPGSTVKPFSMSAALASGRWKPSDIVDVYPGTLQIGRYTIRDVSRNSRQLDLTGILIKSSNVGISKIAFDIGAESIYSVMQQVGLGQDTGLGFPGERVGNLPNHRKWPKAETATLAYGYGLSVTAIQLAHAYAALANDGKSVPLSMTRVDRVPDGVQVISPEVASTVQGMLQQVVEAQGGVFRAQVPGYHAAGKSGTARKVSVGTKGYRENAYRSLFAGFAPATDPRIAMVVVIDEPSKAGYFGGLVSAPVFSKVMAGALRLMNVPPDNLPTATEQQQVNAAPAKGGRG
Summary of the method: as §1

| SMILES | MIC (P. aeruginosa CDC-0095) [µg/mL] | MIC (A. baumannii CDC-0036) [µg/mL] | MIC (P. aeruginosa ATCC 35151) [µg/mL] | MIC (A. baumannii CDC-0033) [µg/mL] | MIC (A. baumannii ATCC 19606) [µg/mL] | MIC [1] [µg/mL] | MIC (A. baumannii ATCC 17978) [µg/mL] | IC50 [2] [µM] | IC50 [3] [µM] |
| --- | --- | --- | --- | --- | --- | --- | --- | --- | --- |
| O=C(O)c1c(F)ccc2c1OB(O)[C@@H](NC(=O)C(NC(=O)N1CCN(C3CCN(C(=O)Nc4cc(O)c(F)c(F)c4)CC3)C(=O)C1=O)c1cc(F)c(O)c(O)c1Cl)C2 (stereo partly drawn) [Example 488, (3R)-3-(2-(2-chloro-5-fluoro-3,4-dihydroxyphenyl)-2-(4-(1-((3,4-difluoro-5-hydroxyphenyl)carbamoyl)piperidin-4-yl)-2,3-dioxopiperazine-1-carboxamido)acetamido)-7-fluoro-2-hydroxy-3,4-dihydro-2H-benzo[e][1,2]oxaborinine-8-carboxylic acid] | 2 to 4 (≈ 2.39 to 4.78 µM) | 2 to 4 (≈ 2.39 to 4.78 µM) | < 1 | 2 to 4 (≈ 2.39 to 4.78 µM) | < 1 | 8 to 16 (≈ 9.56 to 19.1 µM) | < 1 | < 10 | < 10 |
| O=C(O)c1c(F)ccc2c1OB(O)[C@@H](NC(=O)[C@H](NC(=O)N1CCN(C3CCN(C(=O)Nc4cc(F)c(F)c(O)c4F)CC3)C(=O)C1=O)c1cc(F)c(O)c(O)c1Cl)C2 [Example 491, (R)-3-((R)-2-(2-chloro-5-fluoro-3,4-dihydroxyphenyl)-2-(2,3-dioxo-4-(1-((2,4,5-trifluoro-3-hydroxyphenyl)carbamoyl)piperidin-4-yl)piperazine-1-carboxamido)acetamido)-7-fluoro-2-hydroxy-3,4-dihydro-2H-benzo[e][1,2]oxaborinine-8-carboxylic acid] | 2 to 4 (≈ 2.34 to 4.68 µM) | 2 to 4 (≈ 2.34 to 4.68 µM) | < 1 | 2 to 4 (≈ 2.34 to 4.68 µM) | < 1 | 2 to 4 (≈ 2.34 to 4.68 µM) | < 1 | < 10 | < 10 |
| O=C(O)c1c(F)ccc2c1OB(O)[C@@H](NC(=O)C(NC(=O)N1CCN(C3CCN(C(=O)Nc4c(F)ccc(O)c4F)CC3)C(=O)C1=O)c1cc(F)c(O)c(O)c1Cl)C2 (stereo partly drawn) [Example 487, (3R)-3-(2-(2-chloro-5-fluoro-3,4-dihydroxyphenyl)-2-(4-(1-((2,6-difluoro-3-hydroxyphenyl)carbamoyl)piperidin-4-yl)-2,3-dioxopiperazine-1-carboxamido)acetamido)-7-fluoro-2-hydroxy-3,4-dihydro-2H-benzo[e][1,2]oxaborinine-8-carboxylic acid] | < 1 | < 1 | < 1 | 2 to 4 (≈ 2.39 to 4.78 µM) | < 1 | < 1 | < 1 | < 10 | < 10 |
| O=C(O)c1c(F)ccc2c1OB(O)[C@@H](NC(=O)C(NC(=O)N1CCN(C3CCN(C(=O)Nc4ccc(Cl)c(O)c4F)CC3)C(=O)C1=O)c1cc(F)c(O)c(O)c1Cl)C2 (stereo partly drawn) [Example 489, (3R)-3-(2-(4-(1-((4-chloro-2-fluoro-3-hydroxyphenyl)carbamoyl)piperidin-4-yl)-2,3-dioxopiperazine-1-carboxamido)-2-(2-chloro-5-fluoro-3,4-dihydroxyphenyl)acetamido)-7-fluoro-2-hydroxy-3,4-dihydro-2H-benzo[e][1,2]oxaborinine-8-carboxylic acid] | < 1 | 2 to 4 (≈ 2.34 to 4.69 µM) | < 1 | 2 to 4 (≈ 2.34 to 4.69 µM) | < 1 | 2 to 4 (≈ 2.34 to 4.69 µM) | < 1 | < 10 | < 10 |
| O=C(O)c1c(F)ccc2c1OB(O)[C@@H](NC(=O)[C@H](NC(=O)N1CCN(C3CCN(Cc4ccncc4)CC3)C1=O)c1cc(F)c(O)c(O)c1Cl)C2 [Example 493, (R)-3-((R)-2-(2-chloro-5-fluoro-3,4-dihydroxyphenyl)-2-(2-oxo-3-(1-(pyridin-4-ylmethyl)piperidin-4-yl)imidazolidine-1-carboxamido)acetamido)-7-fluoro-2-hydroxy-3,4-dihydro-2H-benzo[e][1,2]oxaborinine-8-carboxylic acid] | < 1 | < 1 | < 1 | 2 to 4 (≈ 2.74 to 5.49 µM) | < 1 | < 1 | < 1 | < 10 | < 10 |
